{"source": "patent US20240300959A1", "about": "“BALASUBRAMIDE DERIVATIVE AND USE THEREOF IN PREPARATION OF MEDICINE FOR TREATING ACUTE LUNG INJURY” (Guangdong Pharmaceutical University, priority 2023, published 2024)", "key": {"[1]": {"system": "TNF-α in bone marrow derived macrophages (BMDMs) stimulated by lipopolysaccharide", "assay": "TNF-α ELISA in LPS-stimulated bone marrow derived macrophages", "type": "cell-based, C57BL/6J mice", "settings": "for Percentage of TNF-α in a model group (%): LPS 100 ng/mL 3 h", "procedure": "(1) Collection of bone marrow derived macrophages (BMDMs): C57BL/6J mice were sacrificed by dislocation of cervical vertebra, completely soaked and sterilized with 75% ethanol and placed faceup on a mouse board to fix the four limbs, the skin of the hind limbs was cut, the limbs were cut at ankle joints and femoral joints, and muscles and knee joints were removed. Precooled serum-free DMEM was sucked with a 1 mL syringe to rinse the bone marrow until a leg bone turned white, a rinsing solution was filtered with a 200-mesh filter membrane and then collected into a 15 mL centrifuge tube, centrifugation was performed at 500×g for 5 min, a supernatant was discarded, and a cell precipitate was resuspended with 1 mL of a red blood cell lysis buffer. After stomatocytosis was performed for 1 min, 5 mL of DMEM was added to stop the stomatocytosis, centrifugation was performed at 500×g for 5 min, a supernatant was discarded, and cells at a lower layer were resuspended overnight with DMEM containing 10% of FBS. Monocytes were collected by centrifugation and then resuspended with a DMEM culture medium containing 20% of FBS, and M-CSF was added at a final concentration of 25 ng/mL. The cells were inoculated into a 96-well plate at a density of 6×10^5, cultured in a cell incubator with a CO2 concentration of 5% at 37° C. for 48 h, and then cultured by adding M-CSF with a final concentration of 25 ng/mL into each well for 48 h until the monocytes were subjected to adherent culture and differentiation to obtain macrophages.\nThe expression level of an inflammatory factor TNF-α in a cell supernatant was detected according to an operation instruction of a commercial ELISA kit, and the cell viability at different administration concentrations of (+)3C-20 was determined according to an operation instruction of a CCK-8 kit."}, "[2]": {"system": "mice with acute lung injury caused by intratracheal instillation of lipopolysaccharide", "assay": "Survival rate of mice with acute lung injury caused by intratracheal instillation of LPS", "type": "in vivo, ICR mice", "settings": "50 mg/kg, LPS 20 mg/kg it, checked up to 72 h", "procedure": "Grouping and administration of animals: 45 male ICR mice were randomly divided into 5 groups according to the body weight, including a control group, a model group, a positive dexamethasone (5 mg/kg) group, a (+)3C-20 (10 mg/kg) group and a (+)3C-20 (50 mg/kg) group, with 9 mice in each group. Drug preparation, an administration method and a modeling method were the same as those in Example 7. With the time of intratracheal instillation of LPS as 0 h, the survival state of the mice was checked at the time points of 4 h, 12 h, 16 h, 20 h, 24 h, 36 h, 48 h, 60 h and 72 h, and a survival curve was drawn based on statistics. Results are shown in FIG. 13 (where compared with LPS (20 mg/kg), ***P is less than 0.001)."}, "[3]": {"system": "mice with acute lung injury caused by intratracheal instillation of lipopolysaccharide", "assay": "Acute lung injury caused by lung exposure to bacterial endotoxin (intratracheal instillation of LPS)", "type": "in vivo, ICR mice", "settings": "for Content of TNF-α in a lung tissue homogenate (% of Model) / Area percentage of alveolar cells (%) / Lung index (%): 6 h after intratracheal LPS; for Area percentage of alveolar cells (%): H&E lung sections; for Change multiple of COX-2 / Change multiple of IL-1β / Change multiple of IL-6 / Change multiple of TNF-α / Change multiple of iNOS: lung tissue RT-PCR; for Body weight (Day 1) / Body weight (Day 2) / Body weight (Day 3): intratracheal LPS model, in g (unit assumed)", "procedure": "Grouping, administration and modeling of animals: Male ICR mice were used as experimental animals, which were randomly divided into a control group, a model group, a positive administration group and administration groups according to the body weight. The control group and the model group were administered with a solvent by intraperitoneal injection (the solvent was prepared from DMSO, Kolliphor HS15 and Saline at a ratio of 1:2:7), the positive administration group was administered with 5 mg/kg dexamethasone by intraperitoneal injection, and the administration groups were administered with (+)3C-20 at a concentration of 10 mg/kg and 50 mg/kg, respectively, by intraperitoneal injection. The dexamethasone and the (+)3C-20 were dissolved in the above solvent and were clear and transparent. The administration was continued for 3 days. 2 h after the last administration, the mice were anesthetized with 2.5% isoflurane, necks were disinfected, cortices of the necks were cut, and tracheae were separated. All other groups were administered with 50 μL of 10 mg/mL LPS (LPS dissolved in Saline) at a dose of 20 mg/kg by instillation while the control group was administered with 50 μL of Saline by intratracheal instillation (it.), and the cortices were sutured. 6 h after the instillation of LPS, the mice were sacrificed, and serum and lung tissues were taken for later use. Body weight and lung index: The mice were weighed and randomly divided on day 1 and continuously weighed for 3 days before administration. 2 h after the last administration, the mice were administered with 50 μL of […] LPS by intratracheal instillation. 6 h later, the mice were dissected, and the lungs were taken and weighed.\nOn day 3, 6 h after the intratracheal instillation of LPS, a part of the mice were subjected to perfusion with PBS and treated with paraformaldehyde to fix the right lobe of the lungs, another part of the mice were dissected to obtain lungs, and the lungs were frozen with liquid nitrogen for later use. The fixed right lungs were stained with hematoxylin-eosin (H&E) after dehydration, paraffin embedding and sectioning. 40 mg of the frozen lungs were cut, 300 μL of an RIPA lysis buffer was added thereto and homogenized by starting for 45 s and stopping for 15 s at a frequency of 60 Hz in 4 cycles for full lysis, and then centrifuged at 12,000 rpm at 4° C. A supernatant was taken, the protein concentration was calibrated and adjusted with a BCA protein assay kit, and then the level of an inflammatory factor TNF-α in lung tissue homogenates of various groups was detected by a commercial TNF-α ELISA kit. Results are shown in Table 10, FIG. 10-1 and FIG. 10-2.\nA small amount of frozen lung tissues were taken, a Trizol lysis reagent was added thereto and fully ground, RNA was extracted according to an operation instruction of an RNA extraction kit, and the expression of inflammation related genes in the lung tissues was detected by an RT-PCR technology. Experimental results are shown in Table 11, FIG. 11-1 and FIG. 11-2."}, "[4]": {"settings": "10 mg/kg i.p., intratracheal LPS"}, "[5]": {"settings": "50 mg/kg i.p., intratracheal LPS"}}}
{"smiles": "O=C(CCc1ccc(C(F)(F)F)cc1)O[C@@H]1C(=O)NCCc2c([nH]c3ccccc23)[C@H]1c1ccc(C(F)(F)F)cc1", "note": "[(+)-3C-20]", "values": [{"measurement": "Percentage of TNF-α in a model group (%)", "setting": "[1]; 0.1 μM", "value": "88.17 ± 7.91", "unit": "%"}, {"measurement": "Percentage of TNF-α in a model group (%)", "setting": "[1]; 1 μM", "value": "86.35 ± 7.41", "unit": "%"}, {"measurement": "Percentage of TNF-α in a model group (%)", "setting": "[1]; 2.5 μM", "value": "62.94 ± 8.54", "unit": "%"}, {"measurement": "Percentage of TNF-α in a model group (%)", "setting": "[1]; 5 μM", "value": "35.12 ± 4.63", "unit": "%"}, {"measurement": "effective dose for inhibiting the expression of TNF-α for the BMDMs", "setting": "[1]; LPS", "value": "2.5 μM or 5 μM"}, {"measurement": "survival rate of the model mice, in words", "setting": "[2]", "value": "can obviously improve the survival rate"}, {"measurement": "Content of TNF-α in a lung tissue homogenate (% of Model)", "setting": "[3]; 10 mg/kg i.p.", "value": "90.587 ± 7.374 ^ % of Model"}, {"measurement": "Area percentage of alveolar cells (%)", "setting": "[3]; 10 mg/kg i.p.", "value": "36.611 ± 1.64", "unit": "%"}, {"measurement": "Change multiple of COX-2", "setting": "[3]; [4]", "value": "2.05 ± 0.38"}, {"measurement": "Change multiple of IL-1β", "setting": "[3]; [4]", "value": "13.04 ± 1.24"}, {"measurement": "Change multiple of IL-6", "setting": "[3]; [4]", "value": "17.12 ± 2.28"}, {"measurement": "Change multiple of TNF-α", "setting": "[3]; [4]", "value": "13.32 ± 0.94"}, {"measurement": "Change multiple of iNOS", "setting": "[3]; [4]", "value": "4.56 ± 0.4"}, {"measurement": "Lung index (%)", "setting": "[3]; 10 mg/kg intraperitoneal 3 days", "value": "0.656 ± 0.007", "unit": "%"}, {"measurement": "Body weight (Day 1)", "setting": "[3]; 10 mg/kg intraperitoneal", "value": "27.67 ± 0.38"}, {"measurement": "Body weight (Day 2)", "setting": "[3]; 10 mg/kg intraperitoneal", "value": "27.44 ± 0.43"}, {"measurement": "Body weight (Day 3)", "setting": "[3]; 10 mg/kg intraperitoneal", "value": "27.93 ± 0.53"}, {"measurement": "Content of TNF-α in a lung tissue homogenate (% of Model)", "setting": "[3]; 50 mg/kg i.p.", "value": "61.408 ± 6.525 % of Model"}, {"measurement": "Area percentage of alveolar cells (%)", "setting": "[3]; 50 mg/kg i.p.", "value": "32.805 ± 0.814", "unit": "%"}, {"measurement": "Change multiple of COX-2", "setting": "[3]; [5]", "value": "1.14 ± 0.24"}, {"measurement": "Change multiple of IL-1β", "setting": "[3]; [5]", "value": "11.94 ± 1.05"}, {"measurement": "Change multiple of IL-6", "setting": "[3]; [5]", "value": "15.11 ± 1.58"}, {"measurement": "Change multiple of TNF-α", "setting": "[3]; [5]", "value": "8.56 ± 1.21"}, {"measurement": "Change multiple of iNOS", "setting": "[3]; [5]", "value": "3.75 ± 0.72"}, {"measurement": "Lung index (%)", "setting": "[3]; 50 mg/kg intraperitoneal 3 days", "value": "0.591 ± 0.011", "unit": "%"}, {"measurement": "Body weight (Day 1)", "setting": "[3]; 50 mg/kg intraperitoneal", "value": "27.63 ± 0.48"}, {"measurement": "Body weight (Day 2)", "setting": "[3]; 50 mg/kg intraperitoneal", "value": "27.04 ± 0.48"}, {"measurement": "Body weight (Day 3)", "setting": "[3]; 50 mg/kg intraperitoneal", "value": "27 ± 0.61"}, {"measurement": "pathological lung injury compared with the model group, in words", "setting": "[3]; 50 mg/kg, intratracheal LPS", "value": "obviously relieving pathological lung injury"}]}
